Results reported in PubChem BioAssay (NCI).
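Assay format: 96-well plates, 48-hour exposure. TGI: concentration producing complete growth inhibition.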

Assays:
Assay in all cases: NCI-60 cell line screen, 48 h
786-0 renal = test system: 786-0 renal
A498 renal = test system: A498 renal
A549 NSCLC = test system: A549 NSCLC
BT-549 breast = test system: BT-549 breast
CAKI-1 renal = test system: CAKI-1 renal
CCRF-CEM leukemia = test system: CCRF-CEM leukemia
COLO 205 colon = test system: COLO 205 colon
DU-145 prostate = test system: DU-145 prostate
EKVX NSCLC = test system: EKVX NSCLC
HCC-2998 colon = test system: HCC-2998 colon
HCT-116 colon = test system: HCT-116 colon
HCT-15 colon = test system: HCT-15 colon
HL-60(TB) leukemia = test system: HL-60(TB) leukemia
HS 578T breast = test system: HS 578T breast
HT29 colon = test system: HT29 colon
IGROV1 ovarian = test system: IGROV1 ovarian
K-562 leukemia = test system: K-562 leukemia
KM12 colon = test system: KM12 colon
LOX IMVI melanoma = test system: LOX IMVI melanoma
M14 melanoma = test system: M14 melanoma
MALME-3M melanoma = test system: MALME-3M melanoma
MCF7 breast = test system: MCF7 breast
MDA-MB-231 breast = test system: MDA-MB-231 breast
MDA-MB-435 = test system: MDA-MB-435
MDA-N = test system: MDA-N
MOLT-4 leukemia = test system: MOLT-4 leukemia
NCI-H226 lung = test system: NCI-H226 lung
NCI-H23 lung = test system: NCI-H23 lung
NCI-H460 lung = test system: NCI-H460 lung
NCI-H522 lung = test system: NCI-H522 lung
NCI/ADR-RES ovarian = test system: NCI/ADR-RES ovarian
OVCAR-3 ovarian = test system: OVCAR-3 ovarian
OVCAR-4 ovarian = test system: OVCAR-4 ovarian
OVCAR-5 ovarian = test system: OVCAR-5 ovarian
OVCAR-8 ovarian = test system: OVCAR-8 ovarian
PC-3 prostate = test system: PC-3 prostate
RPMI-8226 leukemia = test system: RPMI-8226 leukemia
RXF 393 renal = test system: RXF 393 renal
SF-268 CNS = test system: SF-268 CNS
SF-539 CNS = test system: SF-539 CNS
SK-MEL-2 melanoma = test system: SK-MEL-2 melanoma
SK-MEL-28 melanoma = test system: SK-MEL-28 melanoma
SK-MEL-5 melanoma = test system: SK-MEL-5 melanoma
SK-OV-3 ovarian = test system: SK-OV-3 ovarian
SN12C renal = test system: SN12C renal
SNB-19 CNS = test system: SNB-19 CNS
SNB-75 CNS = test system: SNB-75 CNS
SR leukemia = test system: SR leukemia
SW-620 colon = test system: SW-620 colon
T-47D breast = test system: T-47D breast
TK-10 renal = test system: TK-10 renal
U251 CNS = test system: U251 CNS
UACC-257 melanoma = test system: UACC-257 melanoma
UACC-62 melanoma = test system: UACC-62 melanoma
UO-31 renal = test system: UO-31 renal
ACHN renal = test system: ACHN renal
HOP-62 NSCLC = test system: HOP-62 NSCLC
HOP-92 NSCLC = test system: HOP-92 NSCLC
SF-295 CNS = test system: SF-295 CNS

Measured: TGI

CSc1c(C(=O)Nc2ccc(C)cc2)c(N)n(N)c(=O)c1C#N
not listed: ACHN renal | HOP-62 NSCLC | HOP-92 NSCLC | SF-295 CNS
> 100 µM: all other assays above

O=C(NNCC(F)(F)F)c1ccncc1
> 100 µM: all assays above
